Assay results taken from patent US20020137929A1, “1 - (3-heterocyclylphenyl) isothiourea, -isourea, -guanidine and -amidine herbicidal agents” (Intellectual Property Department, BASF Aktiengesellschaft, priority 1998, published 2002).

Tests used:
[1] = system: ORYSAT (Rice, Tebonnet); experiment: Preemergence herbicidal evaluation; type: in vivo, Oryza sativa, (L.) Tebonnet; conditions: rated 4-5 weeks after treatment
Outline: (§1)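 Each species is sown separately in potting soil over roughly an inch of soil before any emergence. The soil surface then receives an aqueous acetone spray delivering about 0.0156 to 0.500 kg/ha of compound. After four to five weeks, injury is scored from 0 to 9 relative to a control.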

[2] = system: CASOB (Sicklepod); experiment: Postemergence herbicidal evaluation; type: in vivo, Cassia obtusifolia; conditions: postemergence
Outline: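 Compound is applied as a foliar spray to seedlings about two weeks old, formulated in equal parts acetone and water with 0.5% TWEEN 20 and delivered at 40 psi to give about 0.0156–0.500 kg per hectare. Injury is rated visually 0–9 after four to five weeks.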

[3] = system: SAGPY (Arrowhead (Pygmaea)); experiment: Preemergence weed control under flooded paddy conditions; type: in vivo, Sagittaria pygmaea; conditions: rated 3-4 weeks after treatment
Outline: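 Using flooded silt loam (water 1.5 to 3 cm deep), seeds sown in the top 0.5 cm were exposed preemergence to compound pipetted into the flood at about 0.0313 to 0.500 kg/ha. Effects were scored 0-9 by eye three to four weeks later.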

[4] = system: GLXMAW (Soybean, Williams); experiment: Preemergence herbicidal evaluation; type: in vivo, Glycine max, (L.) Merr. cv Williams; conditions: rated 4-5 weeks after treatment
Outline: as §1

[5] = system: TRZAWR (Wheat, Winter, cv Riband); experiment: Preemergence herbicidal evaluation; type: in vivo, Triticum aestivum; conditions: rated 4-5 weeks after treatment
Outline: as §1

[6] = rate 0.0156 kg/ha, rating scale 0-9
[7] = rate 0.0313 kg/ha, rating scale 0-9
[8] = rate 0.0625 kg/ha, rating scale 0-9
[9] = rate 0.1250 kg/ha, rating scale 0-9
[10] = rate 0.2500 kg/ha, rating scale 0-9

C[C@H](C(=O)O)N1C(=O)CSC1=Nc1cc(-n2c(=O)cc(C(F)(F)F)n(C)c2=O)c(F)cc1Cl [Compound 70, 2-{{2-Chloro-5-[3,6-dihydro-3-methyl-2,6-dioxo-4-(trifluoromethyl)-1(2H)-pyrimidinyl]-4-fluoro-phenyl}imino}-α-methyl-4-oxo-3-thiazolidineacetic acid, D-]
Preemergence herbicidal rating ORYSAT ([1]; rate 0.0156 kg/ha): 0.0
Preemergence herbicidal rating ORYSAT ([1]; rate 0.0313 kg/ha): 0.0
Preemergence herbicidal rating ORYSAT ([1]; rate 0.0625 kg/ha): 0.0
Preemergence herbicidal rating ORYSAT ([1]; rate 0.1250 kg/ha): 1.0
Preemergence herbicidal rating ORYSAT ([1]; rate 0.2500 kg/ha): 3.0
CASOB herbicidal rating ([2]; rate 0.0158 kg/ha): 0.0
CASOB herbicidal rating ([2]; rate 0.0315 kg/ha): 0.0
CASOB herbicidal rating ([2]; rate 0.0630 kg/ha): 3.0
SAGPY herbicidal effect rating ([3]; 0.0313 kg/ha): 4.0
SAGPY herbicidal effect rating ([3]; 0.0625 kg/ha): 4.0
SAGPY herbicidal effect rating ([3]; 0.1250 kg/ha): 4.0
SAGPY herbicidal effect rating ([3]; 0.2500 kg/ha): 4.0
Preemergence herbicidal rating GLXMAW ([4]; rate 0.0156 kg/ha): 0.0
Preemergence herbicidal rating GLXMAW ([4]; rate 0.0313 kg/ha): 0.0
Preemergence herbicidal rating GLXMAW ([4]; rate 0.0625 kg/ha): 0.0
Preemergence herbicidal rating GLXMAW ([4]; rate 0.1250 kg/ha): 0.0
Preemergence herbicidal rating GLXMAW ([4]; rate 0.2500 kg/ha): 2.0
Preemergence herbicidal rating TRZAWR ([5]; rate 0.0156 kg/ha): 0.0
Preemergence herbicidal rating TRZAWR ([5]; rate 0.0313 kg/ha): 0.0
Preemergence herbicidal rating TRZAWR ([5]; rate 0.0625 kg/ha): 0.0
Preemergence herbicidal rating TRZAWR ([5]; rate 0.1250 kg/ha): 1.0
Preemergence herbicidal rating TRZAWR ([5]; rate 0.2500 kg/ha): 5.0

CCOC(=O)CN1C(=O)C(OC)SC1=Nc1cc(-n2c(=O)cc(C(F)(F)F)n(C)c2=O)c(F)cc1Cl (stereo not shown) [Compound 160, Ethyl 2-{{2-chloro-5-[3,6-dihydro-3-methyl-2,6-dioxo-4-(trifluoromethyl)-1(2H)-pyrimidinyl]-4-fluorophenyl}imino}-5-methoxy-4-oxo-3-thiazolidineacetate]
Preemergence herbicidal rating ORYSAT ([1]; 0.0156 kg/ha): 0.0
Preemergence herbicidal rating ORYSAT ([1]; 0.0313 kg/ha): 0.0
Preemergence herbicidal rating ORYSAT ([1]; 0.0625 kg/ha): 1.0
Preemergence herbicidal rating ORYSAT ([1]; 0.1250 kg/ha): 1.0
Preemergence herbicidal rating ORYSAT ([1]; 0.2500 kg/ha): 7.0
Preemergence herbicidal rating ORYSAT ([1]; 0.5000 kg/ha): 8.0
Herbicidal rating CASOB ([2]; rate 0.0156 kg/ha): 0.0
Herbicidal rating CASOB ([2]; rate 0.0313 kg/ha): 0.0
Herbicidal rating CASOB ([2]; rate 0.0625 kg/ha): 1.0
Herbicidal rating CASOB ([2]; rate 0.1250 kg/ha): 4.0
herbicidal effect rating, SAGPY ([3]; 0.0313 kg/ha): 0.0
herbicidal effect rating, SAGPY ([3]; 0.0625 kg/ha): 2.0
herbicidal effect rating, SAGPY ([3]; 0.1250 kg/ha): 5.0
herbicidal effect rating, SAGPY ([3]; 0.2500 kg/ha): 8.0
Preemergence herbicidal rating GLXMAW ([4]; 0.0156 kg/ha): 1.0
Preemergence herbicidal rating GLXMAW ([4]; 0.0313 kg/ha): 1.0
Preemergence herbicidal rating GLXMAW ([4]; 0.0625 kg/ha): 1.0
Preemergence herbicidal rating GLXMAW ([4]; 0.1250 kg/ha): 2.0
Preemergence herbicidal rating GLXMAW ([4]; 0.2500 kg/ha): 9.0
Preemergence herbicidal rating GLXMAW ([4]; 0.5000 kg/ha): 9.0
Preemergence herbicidal rating TRZAWR ([5]; 0.0156 kg/ha): 0.0
Preemergence herbicidal rating TRZAWR ([5]; 0.0313 kg/ha): 0.0
Preemergence herbicidal rating TRZAWR ([5]; 0.0625 kg/ha): 1.0
Preemergence herbicidal rating TRZAWR ([5]; 0.1250 kg/ha): 1.0
Preemergence herbicidal rating TRZAWR ([5]; 0.2500 kg/ha): 4.0
Preemergence herbicidal rating TRZAWR ([5]; 0.5000 kg/ha): 7.0

Cc1cc(C)cc(CN2C(=O)CSC2=Nc2cc(-n3c(=O)cc(C(F)(F)F)n(C)c3=O)c(F)cc2Cl)c1 [Compound 146, 3-{4-Chloro-5-{[3-(3,5-dimethylbenzyl)-4-oxo-2-thiazolidinylidene]amino}-2-fluorophenyl}-1-methyl-6-(trifluoromethyl)-2,4(1H,3H)-pyrimidinedione]
Preemergence herbicidal rating ORYSAT [1, 6]: 0.0
Preemergence herbicidal rating ORYSAT [1, 7]: 0.0
Preemergence herbicidal rating ORYSAT [1, 8]: 0.0
Preemergence herbicidal rating ORYSAT [1, 9]: 0.0
Preemergence herbicidal rating ORYSAT [1, 10]: 1.0
Herbicidal rating CASOB ([2]; rate 0.0156 kg/ha): 1.0
Herbicidal rating CASOB ([2]; rate 0.0313 kg/ha): 2.0
Herbicidal rating CASOB ([2]; rate 0.0625 kg/ha): 4.0
herbicidal effect rating, SAGPY ([3]; 0.0313 kg/ha): 0.0
herbicidal effect rating, SAGPY ([3]; 0.0625 kg/ha): 0.0
herbicidal effect rating, SAGPY ([3]; 0.1250 kg/ha): 3.0
herbicidal effect rating, SAGPY ([3]; 0.2500 kg/ha): 4.0
Preemergence herbicidal rating GLXMAW [4, 6]: 0.0
Preemergence herbicidal rating GLXMAW [4, 7]: 0.0
Preemergence herbicidal rating GLXMAW [4, 8]: 0.0
Preemergence herbicidal rating GLXMAW [4, 9]: 0.0
Preemergence herbicidal rating GLXMAW [4, 10]: 1.0
Preemergence herbicidal rating TRZAWR [5, 6]: 0.0
Preemergence herbicidal rating TRZAWR [5, 7]: 0.0
Preemergence herbicidal rating TRZAWR [5, 8]: 0.0
Preemergence herbicidal rating TRZAWR [5, 9]: 0.0
Preemergence herbicidal rating TRZAWR [5, 10]: 1.0
